Columns and labels:
MIA PaCa-2 cells [1] = test: In-vitro anti-proliferative activity in combination with gemcitabine (GMC) on MIA PaCa-2 cells; type: cell-based
Protocol: Example 73. In-Vitro Anti-Proliferative Activity of the Compounds of the Present Invention in Combination with Gemcitabine (GMC) on MIA PaCa-2 Cells
(§1) MIA PaCa-2 cells were seeded on a 384-well plate at 3000 cells/well, and 20 nM gemcitabine was added. After overnight adherence culture, DMSO or the compounds serially diluted 1:5 from 100 nM were added. The viability was assessed 72 h after dosing by measuring the intracellular ATP content. The inhibition percentage of viable cells by the compounds was calculated by comparing with the DMSO group, and the IC50 value was calculated.

MIA PaCa-2 cells [2] = test: In-vitro anti-proliferative activity on MIA PaCa-2 cells (intracellular ATP content); type: cell-based; conditions: compound alone, 72 h after dosing, read-out: IC50 Without GMC, anti-proliferative activity on MIA PaCa-2 cells
Protocol: Example 72. In-Vitro Anti-Proliferative Activity of the Compounds of the Present Invention on MIA PaCa-2 Cells
as §1, with “cells/well.” for “cells/well, and 20 nM gemcitabine was added.”, “5 μM” for “100 nM”

Wee-1 kinase = Wee-1 kinase (Homo sapiens (Human), UniProt P30291); test: Inhibitory activity against Wee-1 kinase (ADP-GLO chemiluminescence); type: biochemical; conditions: 60 min reaction at room temperature
Wee-1 kinase, sequence (P30291 whole entry): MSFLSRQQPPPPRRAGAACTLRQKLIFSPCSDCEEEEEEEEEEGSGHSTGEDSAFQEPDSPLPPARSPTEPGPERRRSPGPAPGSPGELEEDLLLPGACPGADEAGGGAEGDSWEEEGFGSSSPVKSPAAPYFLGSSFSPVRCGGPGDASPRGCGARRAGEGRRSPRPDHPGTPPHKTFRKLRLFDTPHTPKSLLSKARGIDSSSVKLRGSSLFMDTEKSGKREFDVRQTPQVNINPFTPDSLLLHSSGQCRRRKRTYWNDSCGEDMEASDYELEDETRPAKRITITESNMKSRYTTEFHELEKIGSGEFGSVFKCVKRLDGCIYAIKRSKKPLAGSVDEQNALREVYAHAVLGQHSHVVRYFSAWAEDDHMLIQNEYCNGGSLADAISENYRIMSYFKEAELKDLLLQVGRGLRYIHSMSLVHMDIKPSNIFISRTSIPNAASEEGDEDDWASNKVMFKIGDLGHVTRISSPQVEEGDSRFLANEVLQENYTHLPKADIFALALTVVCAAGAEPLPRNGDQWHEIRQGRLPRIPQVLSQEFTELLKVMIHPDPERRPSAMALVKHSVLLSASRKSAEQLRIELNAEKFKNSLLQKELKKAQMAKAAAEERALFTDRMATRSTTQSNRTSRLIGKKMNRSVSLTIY
Protocol: Example 71. Assay of Inhibitory Activity of Compounds of the Present Invention Against Wee-1 Kinase
After the serially diluted compound and an enzyme were mixed, the mixture was incubated at room temperature (25° C.) for 15 min, and then centrifuged at 1000 rpm for 1 min for mixing. 5 μL of substrate was added to start the reaction. After the mixture was reacted at room temperature for 60 min, 5 μL of ADP-GLO reagent was added and the mixture was centrifuged at 1000 rpm for 1 min for mixing. The mixture was subsequently incubated at room temperature for 60 min, and then 10 μL of kinase detection reagent was added. The mixture was incubated for 60 min, and the chemiluminescence was determined. The inhibition percentage of the enzyme activity by the compounds was calculated compared with the DMSO group, and the IC50 values were also calculated.

[3] = read-out: IC50 GMC (20 nM), anti-proliferative activity on MIA PaCa-2 cells, in combination with 20 nM gemcitabine, 72 h after dosing, ATP content
[4] = Homo sapiens, MIA PaCa-2, 72 h, read-out: IC50 GMC (20 nM), anti-proliferative activity on MIA PaCa-2 cells, in combination with 20 nM gemcitabine, 72 h after dosing, ATP content

| SMILES | IC50 (MIA PaCa-2 cells [1]; [3]) | IC50 (MIA PaCa-2 cells [2]) | IC50 (Wee-1 kinase) | IC50 (MIA PaCa-2 cells [1]; [4]) | IC50 (MIA PaCa-2 cells [2]; Homo sapiens, MIA PaCa-2, 72 h) |
| --- | --- | --- | --- | --- | --- |
| CN1Cc2cc(Nc3ncc4c(F)cn(-c5cccc(N=S(C)(C)=O)n5)c4n3)cc3c2C(CCC3)C1 (stereo not drawn) [Compound 1] | 1.7 nM | 37 nM | < 2 nM |  |  |
| CCS(=O)(CC)=Nc1cccc(-n2cc(F)c3cnc(Nc4cc5c6c(c4)CN(C)CC6CCC5)nc32)n1 (stereo not drawn) [Compound 2] |  |  | 1.96 nM | 2.4 nM | 106 nM |
| CN1Cc2cc(Nc3ncc4c(F)cn(-c5cccc(N=S6(=O)CCC6)n5)c4n3)cc3c2C(CCC3)C1 (stereo not drawn) [Compound 3] |  |  | 2.48 nM | 2.3 nM | 128 nM |
| CN1Cc2cc(Nc3ncc4c(F)cn(-c5cccc(N=S6(=O)CCCC6)n5)c4n3)cc3c2C(CCC3)C1 (stereo not drawn) [Compound 4] |  |  | 2.47 nM | 2.1 nM | 115 nM |
| CN1Cc2cc(Nc3ncc4c(F)cn(-c5cccc(N=S6(=O)CCOCC6)n5)c4n3)cc3c2C(CCC3)C1 (stereo not drawn) [Compound 5] | 2.4 nM | 139 nM | 2.79 nM |  |  |
| CN1Cc2cc(Nc3ncc4c(F)cn(-c5cccc(P(C)(C)=O)n5)c4n3)cc3c2C(CCC3)C1 (stereo not drawn) [Compound 14] |  |  | 2.71 nM | 1.3 nM | 331 nM |
| [2H]C([2H])([2H])S(=O)(=Nc1cccc(-n2cc(F)c3cnc(Nc4cc5c6c(c4)CN(C)CC6CCC5)nc32)n1)C([2H])([2H])[2H] (stereo not drawn) [Compound 21] |  |  | 1.67 nM | 1.7 nM | 85 nM |
| CN1Cc2cc(Nc3ncc4c(F)cn(-c5ccc(F)c(N=S(C)(C)=O)n5)c4n3)cc3c2C(CCC3)C1 (stereo not drawn) [Compound 23] | 1.2 nM |  | 2.05 nM |  | 155 nM |
| CN1Cc2cc(Nc3ncc4c(F)cn(-c5ccc(Cl)c(N=S(C)(C)=O)n5)c4n3)cc3c2C(CCC3)C1 (stereo not drawn) [Compound 24] |  |  | 2.49 nM | 1.6 nM | 184 nM |
| CCN1Cc2cc(Nc3ncc4c(C)cn(-c5cccc(N=S(C)(C)=O)n5)c4n3)cc3c2C(CCC3)C1 (stereo not drawn) [Compound 28] |  |  | 2.33 nM | 1.3 nM | 172 nM |
| CN1Cc2cc(Nc3ncc4c(F)cn(-c5cccc(N=S(C)(C)=O)n5)c4n3)cc3c2C(CCC3)C1 (stereo not drawn) [Compound 63] |  | 173 nM | 3.47 nM | 2.3 nM |  |
| CN1Cc2cc(Nc3ncc4c(F)cn(-c5ccc(F)c(N=S(C)(C)=O)n5)c4n3)cc3c2C(CCC3)C1 (stereo not drawn) [Compound 64] | 2.5 nM | 179 nM | 3.36 nM |  |  |
| CN1Cc2cc(Nc3ncc4c(F)cn(-c5ccc(F)c(N=S(C)(C)=O)n5)c4n3)cc3c2[C@H](CCC3)C1 [Compound 65] |  |  | 1.56 nM | 1.4 nM | 78 nM |
| CN1Cc2cc(Nc3ncc4c(F)cn(-c5cccc(N=S(C)(C)=O)n5)c4n3)cc3c2[C@H](CCC3)C1 [Compound 66] | 0.9 nM |  | 1.19 nM | < 1 nM | 28 nM |
| [2H]C([2H])([2H])N1Cc2cc(Nc3ncc4c(F)cn(-c5cccc(N=S(C)(C)=O)n5)c4n3)cc3c2[C@H](CCC3)C1 [Compound 67] | 0.8 nM |  | 1.86 nM | < 1 nM | 49 nM |
| [2H]C([2H])([2H])N1Cc2cc(Nc3ncc4c(F)cn(-c5ccc(F)c(N=S(C)(C)=O)n5)c4n3)cc3c2[C@H](CCC3)C1 [Compound 68] | 0.9 nM |  | 1.97 nM | < 1 nM | 76 nM |
| [2H]C([2H])([2H])S(=O)(=Nc1cccc(-n2cc(F)c3cnc(Nc4cc5c6c(c4)CN(C)C[C@H]6CCC5)nc32)n1)C([2H])([2H])[2H] [Compound 69] |  |  | 1.54 nM |  |  |
| [2H]C([2H])([2H])S(=O)(=Nc1nc(-n2cc(F)c3cnc(Nc4cc5c6c(c4)CN(C)C[C@H]6CCC5)nc32)ccc1F)C([2H])([2H])[2H] [Compound 70] |  |  | 1.84 nM | 1.1 nM | 89 nM |
| C=CCn1c(=O)c2cnc(Nc3ccc(N4CCN(C)CC4)cc3)nc2n1-c1cccc(C(C)(C)O)n1 [MK-1775, reference compound] |  |  |  | 24.2 nM | 904 nM |
